The test system of one assay is TAG absorption. Briefly: Dog Oil Bolus Model (plasma triglyceride after olive oil). It counts as in vivo, dog (male beagles). The protocol: Pharmacological Effects in a Dog Oil Bolus Model
Inhibiting MOGAT-2 found in the small intestine may be useful for treating hypertriglyceridemia caused by excessive fat intake. To assess the ability of the exemplified compounds to inhibit TAG absorption, twenty one male beagles (n=7 per treatment group) are enrolled for each study, each dog selected to have a body weight between 9-13 kg. House the dogs in cages with a standard light cycle (12 hours light and 12 hours dark); at room temperature: 72±8° F.; and at 30%-70% relative humidity. Fast the dogs for 16 hours prior to the start of the study, then dose the fasted dogs with vehicle (1% HEC, 0.25%, Tween 80, Antifoam) or one of the test compounds in that vehicle. Bleed the dogs one hour after dosing, (0.5 ml from the jugular vein) for a time 0 sample. Dose the dogs with olive oil (Sigma Catalog#: O-1514, 5 ml/kg) immediately after collection of the time 0 sample. Collect samples into an EDTA tube on ice at 1.5, 2, 3, 5, 7, and 9 hrs post compound/vehicle dosing. Centrifuge the samples at […] for 15 min and analyze (Roche Cat no. 1877771) for plasma total triglyceride using a Roche Hitachi 917. For plasma TAG 18.1—18.1—18.1 measurement, extract the samples and perform LC/MS/MS analysis similarly to that described above in MOGAT-2 Cell Assay using 10 μL of plasma/.
The analyte is the [M+NH4]+ ion of TAG 18:1 18:1 18:1, which has a mass of 902.8 m/z; the internal standard is D5 TAG 16:0 16:0 16:0, which has a mass of 829.8 m/z. Report the ratio of the 603.5 m/z daughter ion of 902.8 m/z (TAG 18:1 18:1 18:1) and the 556.5 m/z daughter ion of 829.8 m/z (D5 TAG 16:0 16:0 16:0 internal standard) changes in TAG 18:1 18:1 18:1 relative amount. Calculate the net plasma TAG AUC from total TAG AUC minus baseline TAG AUC using Graphpad Prism4: (Net AUCTAG=AUCTAG post oil bolus−AUCTAG at 0 hour). The percent inhibition of plasma triglyceride is calculated as follows: the (oil bolus group mean of net TAG AUC−oil bolus group mean of net TAG AUC with compound treatment/oil bolus group mean of net TAG AUC)*100. The final statistic analysis uses Dunnett's method of One way Anova for comparison with the control. All Net TAG AUC values are transformed to ranked averaged AUC for comparison to limit the variability within the studies. The ability of exemplified compounds of the present invention to inhibit MOGAT-2 activity and reduce TAG absorption in vivo can be further evaluated according to this assay.

Another assay deals with human MOGAT-2 (Homo sapiens (Human), UniProt Q3SYC2). The assay can be described thus: MOGAT-2 Cell Assay (Caco-2 cells stably transfected with human MOGAT-2, HDG substrate, LC-MS). It counts as cell-based. The settings on record: Caco-2 cells expressing human MOGAT-2; value (Std Dev., n).
[1] abbreviates: 30 mg/kg PO, combined three studies.
Where [2] appears, read: 75 mg/kg PO, combined two studies.

We go through 4 compounds from patent US8993568B2, “Morpholinyl derivatives useful as MOGAT-2 inhibitors” (Eli Lilly and Company, priority 2012, dated 2015).

Sequence of human MOGAT-2 (Q3SYC2 whole entry): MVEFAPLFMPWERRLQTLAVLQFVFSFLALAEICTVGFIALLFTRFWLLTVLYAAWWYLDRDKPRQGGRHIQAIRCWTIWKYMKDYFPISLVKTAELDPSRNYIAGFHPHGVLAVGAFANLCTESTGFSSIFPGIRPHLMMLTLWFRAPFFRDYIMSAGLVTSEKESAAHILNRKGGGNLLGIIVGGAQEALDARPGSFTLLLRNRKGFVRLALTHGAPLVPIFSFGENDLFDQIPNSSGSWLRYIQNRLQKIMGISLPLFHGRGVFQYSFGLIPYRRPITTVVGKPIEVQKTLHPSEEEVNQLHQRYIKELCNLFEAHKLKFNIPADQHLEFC
Experimental for human MOGAT-2: Inhibitory Activity in MOGAT-2 Cell Assay
The inhibitory activity of compounds against human MOGAT-2 in a cell environment is evaluated in this assay. […] The substrate is delivered to cells using as a mixture with DOPC in the form of sonicated vesicles.
Seed the Caco2 cells onto 100 mm dishes to be 80% confluent after 24 hours in complete media (3/1 DMEM: F12+10% FBS+20 mM HEPES+gentamicin). Transfect the cells with hMOGAT-2 plasmid (MOGAT-2-pCDNA3.1-Hygro) using Lipofectamine 2000 (Invitrogen). After a 6 hour exposure to the transfection mixture, wash the cells three times in PBS and then add media. Incubate the cells for an additional 18 hours incubation, trypsinize the cells and serially dilute them into 100 mm dishes. Add complete media+400 μg/ml hygromycin and incubate until clones appear. Isolate and transfer the clones into 24 well dishes and grow to confluence. Prepare the RNAs from these clones using a Qiagen RNAeasy kit. Perform Taqman analysis using an ABI inventoried assay (HS00228262) on a 7900 Sequence Detection System (ABI).
Mix 2-O-hexadecylglycerol (“HDG”, Biosynth Chemistry & Biology, # H-1806, 562.7 μl of 20 mg/ml) and DOPC (14.3 ml of 20 mg/ml) in chloroform in a glass tube; dry first under N2 gas; and then under reduced pressure for additional 30 minutes. Add 20 ml of buffer (150 mM Tris-Cl pH 7.4, 250 mM sucrose, 1 mM EDTA) to the dried HDG/DOPC mixture while sonicating until the solution becomes clear. Plate the Caco2 cells into a poly-D-lysine coated 96-well plate (the “Cell Plate”) at 37° C., 5% CO2 overnight. Remove the growth media and pretreat the cells with the test compound in DMEMF12 (3:1) media (GIBCO 93-0152DK) containing 2% BSA (Sigma) for 30 minutes. Treat the cells with one test compound in 2% BSA DMEMF12 (3:1) media containing 40 μM of oleic acid and 800 μM of 8.9:91.9 (molar ratio) HDG/DOPC for 4 hours. Trypsinize the cells with 50 μl of trypsin solution and add 50 μl of PBS. Immediately freeze the cells on dry ice and store at −20° C. for LC-MS analysis. […]

Consider `C[C@@H](NS(C)(=O)=O)c1ccc(CN2CCO[C@@H](c3ccc(F)cc3)C2)cc1.O=C(O)/C=C\C(=O)O` [Example 2, N-[(1R)-1-(4-{[(2S)-2-(4-Fluorophenyl)morpholin-4-yl]methyl}phenyl)ethyl]methanesulfonamide maleate], for which, in the assay on TAG absorption (setting [1]), the “inhibition of 18.1 TAG (plasma TAG 18:1 18:1 18:1)” value came out at 45% and the “inhibition of TAG absorption (net plasma total TAG AUC)” value is given as 43%. The “reduction in excursion of postprandial triglycerides” value in the assay on TAG absorption (30 mg/kg and 75 mg/kg, combined studies, p<0.05) was “statistically significant (p<0.05) reduction”. In the assay on TAG absorption (setting [2]), the “inhibition of 18.1 TAG (plasma TAG 18:1 18:1 18:1)” value stood at 63% and the “inhibition of TAG absorption (net plasma total TAG AUC)” value came to 64%.

As for `CS(=O)(=O)N[C@@H](c1ccc(CN2CCOC(c3ccc(F)cc3)C2)cc1)C(F)(F)F` (single isomer, unassigned; isomer 1) [Example 14], at human MOGAT-2, 40 nM corresponded to half-maximal inhibition (IC50).

Take `CS(=O)(=O)N[C@@H](c1ccc(CN2CCOC(c3ccccc3Cl)C2)cc1)C(F)(F)F` (single isomer, unassigned; isomer 2) [Example 5]: the IC50 against human MOGAT-2 was 16 nM. This IC50 lies about 2.5-fold lower than the previous one.

As for `C[C@@H](NS(C)(=O)=O)c1ccc(CN2CCOC(c3cccc(C(F)(F)F)c3)C2)cc1` (single isomer, unassigned; isomer 2) [Example 11], it took 98 nM to reach half-maximal inhibition against human MOGAT-2 (IC50). Compared with the last compound, the IC50 is about 6.1-fold higher.
